This is an account of results in EP4122917A1, “C2-THIOETHER […] AND TETRAMERS AND USE THEREOF” (priority 2021, dated 2023).

Molecules are shown by their SMILES.

This test relates to SARS-CoV-2 virus carrying the D614G mutation in the S protein. Type of test: cell-based. To be noted: read-out: IC50 (µM) SARS-CoV-2 (Vero E6).

Consider `CC(=O)c1ccc(Sc2[nH]c3ccccc3c2C[C@H](NC(=O)CCC(CCC(=O)N[C@@H](Cc2c(Sc3ccc(C(C)=O)cc3)[nH]c3ccccc23)C(=O)O)(CCC(=O)N[C@@H](Cc2c(Sc3ccc(C(C)=O)cc3)[nH]c3ccccc23)C(=O)O)NC(=O)CN)C(=O)O)cc1` [Compound 7c], for which the IC50 (commonly the midpoint of a concentration-inhibition curve) came to 13.3 µM. On to `NCC(=O)NC(CCC(=O)N[C@@H](Cc1c(Sc2ccc([N+](=O)[O-])cc2)[nH]c2ccccc12)C(=O)O)(CCC(=O)N[C@@H](Cc1c(Sc2ccc([N+](=O)[O-])cc2)[nH]c2ccccc12)C(=O)O)CCC(=O)N[C@@H](Cc1c(Sc2ccc([N+](=O)[O-])cc2)[nH]c2ccccc12)C(=O)O` [Compound 7a], for which the IC50 came out at 3.02 µM.
